Measurements published in US10589078B2, “Metallic microneedles” (MICRODERMICS INC., priority 2013, dated 2020).

Type: in vitro ADME
Details: pig, 3 min, 174 μM
Procedure: A 500 μm tall prototype nickel microneedle 120 fabricated using the method depicted in FIGS. 1A-1G was used to inject a fluorescent chemotherapeutic drug (doxorubicin) into pigskin. A backing plate of the microneedle was bonded to a drug container that was connected to a conventional syringe via a flexible plastic capillary tube. The syringe was filled with a 174 μM solution of doxorubicin in water. The syringe was placed in a commercial syringe pump system (from KD Scientific™ of Holliston, Mass.). The microneedle 120 was applied to a shaved pigskin sample. The pump was set to push the plunger to generate a constant flow rate of 0.2 μL/minute for 3 minutes. This flow rate was selected based on a study investigating the efficiency of transdermal drug injection using silicon microneedles (U. O. Häfeli, et al., (2009), Biomed. Microdevices, Vol. 11, pp. 943-950) which found an average delivery rate of 0.2 μL/minute through each needle in an injection trial. After the injection, the skin was cleaned and then scanned using confocal microscopy.

depth of penetration of doxorubicin into the skin: approximately 130 μm
Structure (SMILES): COc1cccc2c1C(=O)c1c(O)c3c(c(O)c1C2=O)C[C@@](O)(C(=O)CO)C[C@@H]3O[C@H]1C[C@H](N)[C@H](O)[C@H](C)O1 [doxorubicin]
